# Experimental data as given in patent publication US11731943B2, “Therapeutic compounds, compositions and methods of use thereof” (priority 2016, dated 2023).
# Where two headings read alike, the source gives them in different places.
# Key:
# [1] = biological target: isolated recombinant JAK1 kinase domain (Homo sapiens (Human), UniProt P23458); assay: JAK1 enzyme assay (Caliper LabChip, Ki); format: biochemical
# Protocol: (§1) JAK Enzyme Assays were carried out as follows:
# (§2) The activity of the isolated recombinant JAK1 and JAK2 kinase domain was measured by monitoring phosphorylation of a peptide derived from JAK3 (Val-Ala-Leu-Val-Asp-Gly-Tyr-Phe-Arg-Leu-Thr-Thr, fluorescently labeled on the N-terminus with 5-carboxyfluorescein) using the Caliper LabChip® technology (Caliper Life Sciences, Hopkinton, Mass.). […] Reactions were incubated at 22° C. in 384-well polypropylene microtiter plates for 30 minutes and then stopped by addition of 25 μL of an EDTA containing solution (100 mM HEPES buffer (pH 7.2), 0.015% Brij-35, 150 mM EDTA), resulting in a final EDTA concentration of 50 mM. After termination of the kinase reaction, the proportion of phosphorylated product was determined as a fraction of total peptide substrate using the Caliper LabChip® 3000 according to the manufacturer's specifications. Ki values were then determined using the Morrison tight binding model (Morrison, J. F., Biochim. Biophys. Acta. 185:269-296 (1969); William, J. W. and Morrison, J. F., Meth. Enzymol., 63:437-467 (1979)) modified for ATP-competitive inhibition [Ki=Ki,app/(1+[ATP]/Km,app)].
# [2] = biological target: isolated recombinant JAK2 kinase domain (Homo sapiens (Human), UniProt O60674); assay: JAK2 enzyme assay (Caliper LabChip, Ki); format: biochemical
# Protocol: as §1
# as §2, with “([…]” for “(Val-Ala-Leu-Val-Asp-Gly-Tyr-Phe-Arg-Leu-Thr-Thr,”, “specifications.” for “specifications. Ki values were then determined using the Morrison tight binding model (Morrison, J. F., Biochim. Biophys. Acta. 185:269-296 (1969); William, J. W. and Morrison, J. F., Meth. Enzymol., 63:437-467 (1979)) modified for ATP-competitive inhibition [Ki=Ki,app/(1+[ATP]/Km,app)].”
# Sequence of isolated recombinant JAK2 kinase domain (O60674 849-1124): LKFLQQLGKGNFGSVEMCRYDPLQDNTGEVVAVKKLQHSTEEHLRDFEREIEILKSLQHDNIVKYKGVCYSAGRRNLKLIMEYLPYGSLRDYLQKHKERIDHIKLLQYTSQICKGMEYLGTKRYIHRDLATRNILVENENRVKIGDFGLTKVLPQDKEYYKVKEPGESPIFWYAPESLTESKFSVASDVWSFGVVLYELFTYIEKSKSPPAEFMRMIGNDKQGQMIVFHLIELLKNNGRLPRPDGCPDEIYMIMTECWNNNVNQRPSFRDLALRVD
# Sequence of isolated recombinant JAK1 kinase domain (P23458 875-1153): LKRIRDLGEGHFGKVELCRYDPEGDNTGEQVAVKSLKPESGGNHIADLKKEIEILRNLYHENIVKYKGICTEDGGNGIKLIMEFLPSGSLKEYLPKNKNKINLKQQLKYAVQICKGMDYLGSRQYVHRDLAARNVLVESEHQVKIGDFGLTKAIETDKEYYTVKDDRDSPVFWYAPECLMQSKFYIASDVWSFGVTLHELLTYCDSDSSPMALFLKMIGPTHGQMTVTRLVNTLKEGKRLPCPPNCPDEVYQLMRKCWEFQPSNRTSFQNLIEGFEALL
smiles,measurement,setting,value
COc1ccccc1CN1CCC(CC#N)(n2cc(C(N)=O)c(NC(=O)C3CC3)n2)CC1 [Example 41],Ki,[1]; read-out: JAK1 Ki,53.8 nM
same,Ki,[2],> 319 nM
N#CCC1(n2cc(C(N)=O)c(NC(=O)C3CC3)n2)CCN(Cc2ccc(-n3ccnc3)cc2)CC1 [Example 85],Ki,[1]; read-out: JAK1 Ki,45.1 nM
same,Ki,[2],170 nM
N#CCC1(n2cc(C(N)=O)c(NC(=O)C3CC3)n2)CCN(Cc2cccc(OC(F)(F)F)c2)CC1 [Example 48],Ki,[1]; read-out: JAK1 Ki,27.7 nM
same,Ki,[2],189 nM
"N#CCC1(n2cc(C(N)=O)c(NC(=O)[C@H]3C[C@H]3C3CC3)n2)CCN(CC(F)(F)F)CC1 (stereo in doubt) [Example 176, 1-[4-(cyanomethyl)-1-(2,2,2-trifluoroethyl)-4-piperidyl]-3-[(2-cyclopropylcyclopropanecarbonyl)amino]pyrazole-4-carboxamide]",Ki,[1]; read-out: JAK1 Ki,302 nM
same,Ki,[2],> 319 nM
N#CC[C@]1(n2cc(C(N)=O)c(NC(=O)C3CC3)n2)CC[C@H](NCc2ccc(Cl)cc2)CC1 [Example 119],Ki,[1],437 nM
same,Ki,[2],> 319 nM
"N#CC[C@]1(n2cc(C(N)=O)c(NC(=O)C3CC3)n2)CC[C@H](N2CC(O)(C(F)(F)F)C2)CC1 [Example 138, 1-[1-(cyanomethyl)-4-[3-hydroxy-3-(trifluoromethyl)azetidin-1-yl]cyclohexyl]-3-(cyclopropanecarbonylamino) pyrazole-4-carboxamide]",Ki,[1]; read-out: JAK1 Ki,> 562 nM
same,Ki,[2],> 319 nM
"CN(C)C(=O)c1ccccc1-c1ccc(CN2CCC(CC#N)(n3cc(C(N)=O)c(NC(=O)C4CC4)n3)CC2)cc1 [Example 144, 1-[4-(cyanomethyl)-1-[[4-[2-(dimethylcarbamoyl)phenyl]phenyl]methyl]-4-piperidyl]-3-(cyclopropanecarbonylamino) pyrazole-4-carboxamide]",Ki,[1]; read-out: JAK1 Ki,8.8 nM
same,Ki,[2],63.5 nM
"N#CCC1(n2cc(C(N)=O)c(NC(=O)C3CC3)n2)CCN(C(=O)Cc2ccccc2)CC1 [Example 18, 1-(4-(Cyanomethyl)-1-(2-phenylacetyl)piperidin-4-yl)-3-(cyclopropanecarboxamido)-1H-pyrazole-4-carboxamide]",Ki,[1]; read-out: JAK1 Ki,30.8 nM
same,Ki,[2],235 nM
N#CCC1(n2cc(C(N)=O)c(NC(=O)C3CC3)n2)CCN(Cc2ccc3c(c2)CSC3)CC1 [Example 91],Ki,[1]; read-out: JAK1 Ki,8.3 nM
same,Ki,[2],173 nM
C[C@@H]1C[C@H]1C(=O)Nc1nn(C2(CC#N)CCN(CC(F)(F)F)CC2)cc1C(N)=O [Example 32],Ki,[1]; read-out: JAK1 Ki,71.8 nM
same,Ki,[2],196 nM
"N#CCC1(n2cc(C(N)=O)c(NC(=O)C3CC3)n2)CCN(C(=O)C2CC(F)(F)C2)CC1 [Example 168, 1-[4-(cyanomethyl)-1-(3,3-difluorocyclobutanecarbonyl)-4-piperidyl]-3-(cyclopropanecarbonylamino) pyrazole-4-carboxamide]",Ki,[1]; read-out: JAK1 Ki,7.5 nM
same,Ki,[2],93.3 nM
"N#CC[C@]1(n2cc(C(N)=O)c(NC(=O)C3CC3)n2)CC[C@@H](NC2CCC(F)(F)CC2)CC1 [Example 175, 1-[1-(cyanomethyl)-4-[(4,4-difluorocyclohexyl)amino]cyclohexyl]-3-(cyclopropanecarbonylamino) pyrazole-4-carboxamide]",Ki,[1],14.1 nM
same,Ki,[2],321 nM
COc1cccc(CN2CCC(CC#N)(n3cc(C(N)=O)c(NC(=O)C4CC4)n3)CC2)c1 [Example 42],Ki,[1]; read-out: JAK1 Ki,7.8 nM
same,Ki,[2],94.9 nM
N#CCC1(n2cc(C(N)=O)c(NC(=O)[C@H]3CC34CCC4)n2)CCN(CC(F)(F)F)CC1 [Example 31],Ki,[1]; read-out: JAK1 Ki,96.4 nM
same,Ki,[2],189 nM
N#CCC1(n2cc(C(N)=O)c(NC(=O)C3CC3)n2)CCN(Cc2ccccc2OC(F)(F)F)CC1 [Example 47],Ki,[1]; read-out: JAK1 Ki,34.1 nM
same,Ki,[2],250 nM
N#CCC1(n2cc(C(N)=O)c(NC(=O)C3CC3)n2)CCN(Cc2ccccc2I)CC1 [Example 53],Ki,[1]; read-out: JAK1 Ki,7.1 nM
same,Ki,[2],101 nM
N#CCC1(n2cc(C(N)=O)c(NC(=O)C3CC3)n2)CCN(CCC(F)(F)F)CC1 [Example 96],Ki,[1]; read-out: JAK1 Ki,24.1 nM
same,Ki,[2],113 nM
CC(C)(C)OC(=O)N[C@H]1CC[C@](CC#N)(n2cc(C(N)=O)c(NC(=O)C3CC3)n2)CC1 [Example 35],Ki,[1],20.2 nM
same,Ki,[2],275 nM
N#CCC1(n2cc(C(N)=O)c(NC(=O)C3CC3)n2)CCN(Cc2ccc(N3CCCC3)cc2)CC1 [Example 84],Ki,[1]; read-out: JAK1 Ki,85 nM
same,Ki,[2],> 319 nM
CC1(C)CN([C@H]2CC[C@@](CC#N)(n3cc(C(N)=O)c(NC(=O)C4CC4)n3)CC2)C1 [Example 106],Ki,[1],23.3 nM
same,Ki,[2],333 nM
N#CC[C@]1(n2cc(C(N)=O)c(NC(=O)C3CC3)n2)CC[C@@H](N2CC3(CCC3)C2)CC1 [Example 108],Ki,[1],466 nM
same,Ki,[2],205 nM
N#CCC1(n2cc(C(N)=O)c(NC(=O)C3CC3)n2)CCN(Cc2ccc3nc[nH]c3c2)CC1 [Example 73],Ki,[1]; read-out: JAK1 Ki,57.3 nM
same,Ki,[2],272 nM
N#CCC1(n2cc(C(N)=O)c(NC(=O)[C@@H]3C[C@@H]3F)n2)CCN(CC(F)(F)F)CC1 [Example 28],Ki,[1]; read-out: JAK1 Ki,12.1 nM
same,Ki,[2],30.9 nM
N#CCC1(n2cc(C(N)=O)c(NC(=O)C3CC3)n2)CCN(Cc2ccc(-n3cnc4ccccc43)cc2)CC1 [Example 88],Ki,[1]; read-out: JAK1 Ki,26.3 nM
same,Ki,[2],150 nM
CC(C)OC1(C(F)(F)F)CN([C@H]2CC[C@](CC#N)(n3cc(C(N)=O)c(NC(=O)C4CC4)n3)CC2)C1 [Example 136],Ki,[1]; read-out: JAK1 Ki,463 nM
same,Ki,[2],> 319 nM
"N#CC[C@]1(n2cc(C(N)=O)c(NC(=O)C3CC3)n2)CC[C@@H](N2CC(C(F)(F)F)C2)CC1 (single isomer, unassigned) [Example 7]",Ki,[1]; read-out: JAK1 Ki,> 562 nM
same,Ki,[2],> 319 nM
N#CC[C@]1(n2cc(C(N)=O)c(NC(=O)C3CC3)n2)CC[C@@H](NC2CCOCC2)CC1 [Example 104],Ki,[1],> 562 nM
same,Ki,[2],> 319 nM
N#CC[C@]1(n2cc(C(N)=O)c(NC(=O)C3CC3)n2)CC[C@@H](NCc2cccc(F)c2)CC1 [Example 114],Ki,[1],> 562 nM
same,Ki,[2],> 319 nM
N#CC[C@]1(n2cc(C(N)=O)c(NC(=O)C3CC3)n2)CC[C@H](NCc2ccc(-c3ccccc3)cc2)CC1 [Example 127],Ki,[1],> 562 nM
same,Ki,[2],> 319 nM
N#CC[C@]1(n2cc(C(N)=O)c(NC(=O)C3CC3)n2)CC[C@H](NCc2ccccc2F)CC1 [Example 111],Ki,[1],9.5 nM
same,Ki,[2],87.3 nM
N#CC[C@]1(n2cc(C(N)=O)c(NC(=O)C3CC3)n2)CCN(Cc2ccccc2)C[C@H]1F [Example 165],Ki,[1]; read-out: JAK1 Ki,27.1 nM
same,Ki,[2],211 nM
"N#CC[C@]1(n2cc(C(N)=O)c(NC(=O)C3CC3)n2)CC[C@H](NC2CC(F)(F)C2)CC1 [Example 172, 1-[1-(cyanomethyl)-4-[(3,3-difluorocyclobutyl)amino]cyclohexyl]-3-(cyclopropanecarbonylamino) pyrazole-4-carboxamide]",Ki,[1],> 562 nM
same,Ki,[2],> 319 nM
N#CCC1(n2cc(C(N)=O)c(NC(=O)C3CC3)n2)CCCCC1 [Example 33],Ki,[1]; read-out: JAK1 Ki,15.6 nM
same,Ki,[2],76.5 nM
N#CCC1(n2cc(C(N)=O)c(NC(=O)C3CC3)n2)CCC2(CC1)Oc1ccccc1O2 (racemic) [Example 34],Ki,[1],24.8 nM
same,Ki,[2],276 nM
N#CC[C@]1(n2cc(C(N)=O)c(NC(=O)C3CC3)n2)CC[C@@H](NCc2ccccc2)CC1 [Example 110],Ki,[1],5.3 nM
same,Ki,[2],254 nM
N#CC[C@]1(n2cc(C(N)=O)c(NC(=O)C3CC3)n2)CC[C@H](NCCC(F)(F)F)CC1 [Example 125],Ki,[1],7.3 nM
same,Ki,[2],78.3 nM
N#CC[C@]1(n2cc(C(N)=O)c(NC(=O)C3CC3)n2)CC[C@H](NCc2ccc(F)cc2)CC1 [Example 115],Ki,[1],21.9 nM
same,Ki,[2],300 nM
N#CC[C@]1(n2cc(C(N)=O)c(NC(=O)C3CC3)n2)CC[C@H](NCc2ccccc2)CC1 [Example 109],Ki,[1],> 562 nM
same,Ki,[2],> 319 nM
N#CCC1(n2cc(C(N)=O)c(NC(=O)C3CC3)n2)CCN(Cc2cccc(Br)c2)CC1 [Example 51],Ki,[1]; read-out: JAK1 Ki,6.5 nM
same,Ki,[2],53.7 nM
N#CCC1(n2cc(C(N)=O)c(NC(=O)C3CC3)n2)CCN(Cc2cccc(C(F)(F)F)c2)CC1 [Example 62],Ki,[1]; read-out: JAK1 Ki,27.6 nM
same,Ki,[2],285 nM
N#CC[C@]1(n2cc(C(N)=O)c(NC(=O)C3CC3)n2)CC[C@@H](NCc2ccc(C#N)cc2)CC1 [Example 122],Ki,[1],562 nM
same,Ki,[2],> 319 nM
COC1CN([C@H]2CC[C@](CC#N)(n3cc(C(N)=O)c(NC(=O)C4CC4)n3)CC2)C1 [Example 101],Ki,[1],> 562 nM
same,Ki,[2],> 319 nM
"N#CCC1(n2cc(C(N)=O)c(NC(=O)C3CC3)n2)CCC2(CC1)COC2 [Example 5, 1-(7-(Cyanomethyl)-2-oxaspiro[3.5]nonan-7-yl)-3-(cyclopropanecarboxamido)-1H-pyrazole-4-carboxamide]",Ki,[1]; read-out: JAK1 Ki,22.8 nM
same,Ki,[2],189 nM
N#CCC1(n2cc(C(N)=O)c(NC(=O)C3CC3)n2)CCN(Cc2ccccc2Br)CC1 [Example 50],Ki,[1]; read-out: JAK1 Ki,6.2 nM
same,Ki,[2],66.4 nM
